Results taken from US20160106099A1, “MICROBICIDAL COMPOSITION COMPRISING ISOTHIAZOLONE AND AN AMINE OXIDE” (THOR GMBH, priority 2013, published 2016).

What was measured:
[1] = test system: Candida albicans (ATCC 10231); assay: Minimum inhibitory concentration and synergy index according to Kull et al.; type: cell-based; conditions: for Synergistic Index Qa/QA + Qb/QB: MIT + amine oxide
Description: (§1) The synergism of a combination of 2-Methyl-isothiazolinone (MIT) with N,N-Dimethyldodecan-1-amine oxide was tested. Test organisms used was the mould Aspergillus niger (DSM 12623). For the purpose of the test, mixtures containing different concentrations of MIT and N,N-Dimethyldodecan-1-amine oxide were prepared and tested for their action on Aspergillus niger. […] The MIC is the concentration at which there is no formation of colonies or mycelia on the surface of the agar (Aspergillus niger).
(§2) The synergism that occurred was presented numerically by calculation of the synergy index (SI). This calculation was made using the common method of F. C. Kull et al., Applied Microbiology, vol. 9 (1961), p. 538. SI is calculated there in accordance with the following formula:
(§3) Synergy index SI=Qa/QA+Qb/QB
(§4) Qa=concentration of MIT in the mixture of N,N-Dimethyldodecan-1-amine oxide+MIT QA=concentration of MIT as sole biocide Qb=concentration of N,N-Dimethyldodecan-1-amine oxide in the biocide mixture of N,N-Dimethyldodecan-1-amine oxide+MIT QB=concentration of N,N-Dimethyldodecan-1-amine oxide as sole biocide
(§5) If the synergy index has a value of more than 1, this means that there is an antagonism. If the synergy index adopts a value of 1, this means that the action of the two biocides is additive. If the synergy index takes on a value of below 1, this means that there is synergism of the two biocides.
Determination of the Synergy Index According to Kull et al. of N,N-Dimethyldodecan-1-amine oxide+MIT in Respect of Candida albicans (ATCC 10231)
The cell density of Candida albicans (ATCC 10231) was 10^6/ml, incubation time 72 hours, temperature 25° C.
Determination of the Synergy Index According to Kull et al. of N,N-Dimethyldodecan-1-amine oxide+MIT+2-n-octyl-4-isothiazolin-3-one (OIT) in Respect of Candida albicans (ATCC 10231)

[2] = test system: Aspergillus niger (DSM 12623); assay: Minimum inhibitory concentration and synergy index (Kull) in Sabouraud glucose agar, visual growth reading; type: cell-based; conditions: 72 hours at 25° C.; for Synergistic Index Qa/QA + Qb/QB: below 1 = synergism, 1 = additive, above 1 = antagonism
Description: as §1, §2, §3
In the application of this formula to the MIT+N,N-Dimethyldodecan-1-amine oxide biocide system tested here, the variables in the formula have the following definition:
as §4, §5
Determination of the Synergy Index of N,N-Dimethyldodecan-1-amine oxide+MIT in Respect of Aspergillus niger for an Incubation Time of 72 Hours at 25° C.

[3] = Table 2, sum of MIT and amine oxide at MIC

Row | SMILES | Total ([1]; Table 3) [ppm] | Synergistic Index ([1]; Table 3, MIT + amine oxide + OIT) | Qb/QB ([1]; Table 3, OIT component) | MHK Qb (OIT) ([1]; Table 3, OIT concentration at MIC, alone or with MIT + amine oxide) [ppm] | Synergistic Index Qa/QA + Qb/QB [2] | MHK Qa (MIT) ([2]; MIT concentration at MIC, alone (MIC) or in mixture with amine oxide, 3,7·10^6 spores per ml) | Synergistic Index Qa/QA + Qb/QB ([1]; Table 2, 72 hours, 25° C.) | MHK Qa (MIT) ([1]; Table 2, MIT concentration at MIC, alone or in mixture with amine oxide, 10^6/ml, 72 hours, 25° C.) [ppm] | Qa/QA ([1]; Table 2, MIT in mixture / MIT as sole biocide) | Total [1, 3] [ppm] | MHK Qb (Amine oxide) ([2]; amine oxide concentration at MIC, alone (MIC) or in mixture with MIT) | MHK Qb (Amine oxide) ([1]; Table 2, amine oxide concentration at MIC, alone or in mixture with MIT, 72 hours, 25° C.) [ppm] | Qb/QB ([1]; Table 2, amine oxide in mixture / amine oxide as sole biocide)
1 | CCCCCCCCn1sccc1=O [OIT, 2-n-octyl-4-isothiazolin-3-one] | 3 | 1.00 | 1.00 | 3 | – | – | – | – | – | – | – | – | –
2 | Cn1sccc1=O [MIT, 2-methylisothiazolin-3-one] | – | – | – | – | 1.00 | 1000 (MIC) ppm | 1.00 | 125 | 1.00 | 125 | – | – | –
3 | CCCCCCCCCCCC[N+](C)(C)[O-] [Amine oxide, N,N-Dimethyldodecan-1-amine oxide] | – | – | – | – | 1.00 | – | 1.00 | – | – | 50 | 231 (MIC) ppm | 50 | 1.00
